Laboratory results published in US11518764B2, “Substituted heteroaryls as inhibitors of the BCL6 BTB domain protein-protein interaction” (Ontario Institute for Cancer Research (OICR), priority 2018, dated 2022).
Read-outs that look alike come from different tables or passages of the source.

What was measured:
[1] = biological target: BCL6 BTB domain (Homo sapiens (Human), UniProt P41182); assay: Surface plasmon resonance (SPR) assay; type: binding; settings: BCL6 BTB domain captured on SA chip, single cycle kinetics
[2] = system: BCL6 reporter construct (3xBCL6-TK-Luc) in SuDHL4 cells; assay: Cell-based luciferase assay
Experimental: Cell-Based Luciferase Assay
A BCL6 reporter construct containing three copies of the consensus BCL6 binding site, the TK promoter, and the firefly luciferase gene was stably expressed in SuDHL4 cells after lentivirus infection and selection with Blasticidin. SuDHL4-3×BCL6-TK-Luc cells were seeded into a Viewplate 384-well assay dish at 15,000 cells/well in 25 ul medium (Alpha-MEM high glucose containing 10% FBS, 25 mM HEPES, […] GlutaMAX, 100 ug/ml Normocin, and […] Gentamycin, Invitrogen). A HP D300 digital dispenser was used to dose cells with DMSO or test compounds across a 10-point range of concentrations (high dose of 10 uM), and cultures were grown in a humidified 5% CO2 incubator at 37° C. After two days, plates were removed from the incubator and equilibrated to room temperature. An equal volume of neolite reporter gene assay reagent was added to each well, and samples were processed according to manufacturer's instructions (Perkin Elmer). Luminescent signal was measured using an Envision plate reader equipped with a US-Luminescence detector.

[3] = system: Karpas422 cells; assay: Tumor cell growth inhibition assay; type: cell-based
Experimental: Tumor Cell Growth inhibition Assay
Karpas422 cells were seeded into a 96-well plate at 2,000 cells/well in 150 ul medium (Alpha-MEM containing 10% FBS, […] Normocin, and […] Gentamycin, Invitrogen). A HP D300 digital dispenser was used to dose cells with DMSO or test compounds across a 10-point range of concentrations (high dose of 5 uM), and cultures were grown in a humidified 5% CO2 incubator at 37° C. After six days, plates were removed from incubator and equilibrated to room temperature. An equal volume of ATPlite assay reagent was added to each well, and samples were processed according to manufacturer's instructions (Perkin Elmer). Luminescent signal was measured using an Envision plate reader equipped with a US-Luminescence detector.

[4] = Homo sapiens, SU-DHL-4, 48 h, read-out: Luciferase-Assay EC50, uM), SuDHL4-3xBCL6-TK-Luc cells, two days, high dose 10 uM
[5] = Homo sapiens, KARPAS-422, 144 h, read-out: Tumor Growth Inhibition in Karpas-422 (IC50, uM), Karpas422 cells, six days, ATPlite

| Compound | Kd [1] [nM] | EC50 [2, 4] [µM] | IC50 [3, 5] [µM] | other results |
| --- | --- | --- | --- | --- |
| Cn1cnc2c(c(-c3cc(Cl)c(O)c(C(N)=O)c3)cn2CC(=O)N[C@@H]2CCCC[C@H]2OC(=O)C(F)(F)F)c1=O [Compound I-254, (1R,2R)-2-(2-(5-(3-carbamoyl-5-chloro-4-hydroxyphenyl)-3-methyl-4-oxo-3,4-dihydro-7H-pyrrolo[2,3-d]pyrimidin-7-yl)acetamido)cyclohexyl 2,2,2-trifluoroacetate] | 3880 |  |  |  |
| Cn1cnc2c(c(-c3cc(Cl)c(O)c(C(N)=O)c3)cn2CC(=O)NC2CCCc3ccncc32)c1=O (stereo not shown) [Compound I-255] | 6110 |  |  |  |
| Cn1cnc2c(c(-c3cc(Cl)c(O)c(C(N)=O)c3)cn2CC(=O)NC2CCCc3ncccc32)c1=O (stereo not shown) [Compound I-257] | 3640 |  |  |  |
| C[C@H]1COCCN1c1cc(NC(=O)Cn2cc(-c3cc(Cl)c(O)c(C(N)=O)c3)c3c(=O)n(C)c(N(C)C)nc32)c(Cl)cn1 [Compound I-263, (S)-3-chloro-5-(7-(2-((5-chloro-2-(3-methylmorpholino)pyridin-4-yl)amino)-2-oxoethyl)-2-(dimethylamino)-3-methyl-4-oxo-4,7-dihydro-3H-pyrrolo[2,3-d]pyrimidin-5-yl)-2-hydroxybenzamide] |  | 2.07 | 0.745 |  |
| COc1c(O)c(C(N)=O)cc(-c2cn(CC(=O)Nc3cc(N4CCN(C)C[C@@H]4C)ncc3Cl)c3nc(C(F)(F)F)n(C)c(=O)c23)c1F [Compound I-266] |  | 1.61 | 2.78 |  |
| CNc1nc2c(c(-c3cc(Cl)c(O)c(C(N)=O)c3)cn2CC(=O)Nc2cc(N3CCOC[C@@H]3C)ncc2Cl)c(=O)n1C [Compound I-268, (S)-3-chloro-5-(7-(2-((5-chloro-2-(3-methylmorpholino)pyridin-4-yl)amino)-2-oxoethyl)-3-methyl-2-(methylamino)-4-oxo-4,7-dihydro-3H-pyrrolo[2,3-d]pyrimidin-5-yl)-2-hydroxybenzamide] |  | 1.8 | 1.86 |  |
| CN(C)c1cc(NC(=O)Cn2cc(-c3cc(Cl)c(O)c(C(N)=O)c3)c3c(=O)n(C)c(Nc4cc(N(C)C)ncc4Cl)nc32)c(Cl)cn1 [Compound I-291, 3-chloro-5-(2-((5-chloro-2-(dimethylamino)pyridin-4-yl)amino)-7-(2-((5-chloro-2-(dimethylamino)pyridin-4-yl)amino)-2-oxoethyl)-3-methyl-4-oxo-4,7-dihydro-3H-pyrrolo[2,3-d]pyrimidin-5-yl)-2-hydroxybenzamide] |  | 1.76 | 0.908 |  |
| C[C@H]1CN(CC2CC2)CCN1c1cc(NC(=O)Cn2cc(-c3cc(C(N)=O)c(O)c(F)c3F)c3c(=O)n(C)cnc32)c(Cl)cn1 [Compound I-307] |  | 0.464 | 0.676 |  |
| Cc1nc2c(c(-c3cc(Cl)c(O)c(C(N)=O)c3)cn2CC(=O)Nc2cc(N3CCN(C4COC4)C[C@@H]3C)ncc2Cl)c(=O)n1C [Compound I-336] |  | 0.0383 | 0.0502 |  |
| Cc1nc2c(c(-c3cc(Cl)c(O)c(C(N)=O)c3)cn2CC(=O)Nc2ccncc2Br)c(=O)n1C [Compound I-337] |  | 1.55 | 1.93 |  |
| Cc1nc2c(c(-c3cc(Cl)c(O)c(C(N)=O)c3)cn2CC(=O)Nc2cc(N3CCN(CC4CC4)C[C@@H]3C)ncc2Cl)c(=O)n1C [Compound I-338] |  | 0.163 | 0.231 |  |
| Cc1nc2c(c(-c3cc(C(N)=O)c(O)c(F)c3F)cn2CC(=O)Nc2cc(N3CCN(CC4CC4)C[C@@H]3C)ncc2Cl)c(=O)n1C [Compound I-339] |  | 0.454 | 0.237 |  |
| [2H]C1(C([2H])([2H])N2CCN(c3cc(NC(=O)Cn4cc(-c5cc(C(N)=O)c(O)c(F)c5F)c5c(=O)n(C)cnc54)c(Cl)cn3)[C@@H](C)C2)CC1 [Compound I-370] |  | 0.61 | 1.31 |  |
| CN1CC2CC(C1)N2c1cc(NC(=O)Cn2cc(-c3cc(F)c(O)c(C(N)=O)c3)c3c(=O)n(C)cnc32)c(Cl)cn1 [Compound I-450] | 43.6 |  |  |  |
| CN1CC2CC(C1)N2c1cc(NC(=O)Cn2cc(-c3cc(C(N)=O)c(O)c(F)c3F)c3c(=O)n(C)cnc32)c(Cl)cn1 [Compound I-451] | 157 |  |  |  |
| CN1CCC2(C1)CN(c1cc(NC(=O)Cn3cc(-c4cc(C(N)=O)c(O)c(F)c4F)c4c(=O)n(C)cnc43)c(Cl)cn1)C2 [Compound I-485] | 805 |  |  |  |
| (S)-3-chloro-5-(7-(2-((5-chloro-2-(3-methylmorpholino)pyridin-4-yl)amino)-2-oxoethyl)-3-methyl-4-oxo-2-phenyl-4,7-dihydro-3H-pyrrolo[2,3-d]pyrimidin-5-yl)-2-hydroxybenzamide [Compound I-247] |  |  |  | EC50 ([2]; SuDHL4-3xBCL6-TK-Luc cells, two days, high dose 10 uM, read-out: Luciferase-Assay EC50): 15.2 µM; IC50 ([3]; Karpas422 cells, six days, ATPlite, read-out: Tumor Growth Inhibition in Karpas-422 (IC50)): 0.628 µM |
